Assay results taken from patent US20250206721A1, “Prostaglandin Receptor EP2 Antagonists, Derivatives, and Uses Related Thereto” (Emory University, priority 2019, published 2025).
≈ marks a conversion by molar mass, not a printed value. Where a name gives a salt, the structure may show the parent alone. Read-outs that look alike come from different tables or passages of the source.

Columns and labels:
[1] = Metabolite investigation in mouse liver microsomes; format: in vitro ADME; settings: 2a after 5 minutes; 3 after 20 minutes
[2] = Mouse liver microsomal (MLM) stability
[3] = pH 2
[4] = Kinetic aqueous solubility in PBS by nephelometry; settings: for Aqueous Solubility: PBS buffer (pH 7.4) with 1% DMSO, nephelometry
physchem [5] = settings: pH 2, simulated gastric fluid, kinetic from dmso stock
human EP4 receptor = human EP4 receptor (Homo sapiens, UniProt P35408); assay: Cell-based cAMP TR-FRET assay on EP4 (agonist PGE2); settings: selectivity index EP4 KB/EP2 KB, fold
human IP receptor = human IP receptor (Homo sapiens, UniProt P43119); assay: Cell-based cAMP TR-FRET assay on IP (agonist iloprost); settings: selectivity index IP KB/EP2 KB, fold
human DP1 receptor = target: T1, human DP1 receptor (Homo sapiens, UniProt Q13258); settings: selectivity index DP1 KB/EP2 KB, fold
T1 sequence (Q13258 1-359): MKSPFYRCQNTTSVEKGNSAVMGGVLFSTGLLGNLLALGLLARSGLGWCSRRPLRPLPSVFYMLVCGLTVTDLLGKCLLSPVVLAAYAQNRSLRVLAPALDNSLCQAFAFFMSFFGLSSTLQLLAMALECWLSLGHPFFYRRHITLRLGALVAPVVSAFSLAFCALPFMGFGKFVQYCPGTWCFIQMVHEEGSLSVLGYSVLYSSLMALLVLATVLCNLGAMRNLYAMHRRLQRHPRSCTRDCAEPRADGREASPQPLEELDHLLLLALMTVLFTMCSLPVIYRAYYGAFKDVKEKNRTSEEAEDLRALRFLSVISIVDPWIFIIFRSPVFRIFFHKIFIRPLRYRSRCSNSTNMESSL

[6] = mouse
human EP2 receptor = target: T2, human EP2 receptor (Homo sapiens, UniProt P43116); assay: Cell-based cAMP TR-FRET assay, Schild KB on EP2; settings: for Kb: Schild KB, agonist PGE2, antagonist concentration 1 μM, C6G cells expressing human EP2
T2 construct: expressed in transfected cells

C6glioma cells = settings: rat
[7] = pH 7.4
[8] = mouse; remark: listed apart in the source
[9] = Solubility in simulated gastric fluid (SGF) by nephelometry
[10] = Thermodynamic shake flask solubility in neat water
physchem [11] = settings: water, thermodynamic from solid
in vitro = settings: mouse, pooled liver microsomes

T2 sequence (P43116 whole entry): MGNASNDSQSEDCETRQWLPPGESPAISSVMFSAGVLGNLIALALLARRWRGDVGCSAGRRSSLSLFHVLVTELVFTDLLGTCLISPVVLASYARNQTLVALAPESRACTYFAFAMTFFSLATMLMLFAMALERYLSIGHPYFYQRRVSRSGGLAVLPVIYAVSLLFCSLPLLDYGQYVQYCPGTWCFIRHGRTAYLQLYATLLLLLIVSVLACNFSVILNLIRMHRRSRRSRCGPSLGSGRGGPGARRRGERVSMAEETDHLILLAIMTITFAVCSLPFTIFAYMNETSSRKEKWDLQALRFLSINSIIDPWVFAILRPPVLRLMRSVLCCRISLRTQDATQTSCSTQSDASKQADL
human EP4 receptor, sequence (P35408 whole entry): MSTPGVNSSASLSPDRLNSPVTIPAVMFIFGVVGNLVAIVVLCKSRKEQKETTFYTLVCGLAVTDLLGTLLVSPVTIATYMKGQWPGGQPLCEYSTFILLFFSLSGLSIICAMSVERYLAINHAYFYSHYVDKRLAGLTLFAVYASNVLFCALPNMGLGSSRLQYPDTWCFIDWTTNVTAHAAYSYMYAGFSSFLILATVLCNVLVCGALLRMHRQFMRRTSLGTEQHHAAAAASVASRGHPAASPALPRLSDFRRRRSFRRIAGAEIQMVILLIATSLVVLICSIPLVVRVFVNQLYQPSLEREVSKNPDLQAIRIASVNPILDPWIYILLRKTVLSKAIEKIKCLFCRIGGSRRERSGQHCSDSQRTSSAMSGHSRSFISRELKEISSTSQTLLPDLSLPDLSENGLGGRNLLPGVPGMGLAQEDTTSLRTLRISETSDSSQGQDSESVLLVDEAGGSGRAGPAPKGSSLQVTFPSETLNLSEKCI
human IP receptor, sequence (P43119 whole entry): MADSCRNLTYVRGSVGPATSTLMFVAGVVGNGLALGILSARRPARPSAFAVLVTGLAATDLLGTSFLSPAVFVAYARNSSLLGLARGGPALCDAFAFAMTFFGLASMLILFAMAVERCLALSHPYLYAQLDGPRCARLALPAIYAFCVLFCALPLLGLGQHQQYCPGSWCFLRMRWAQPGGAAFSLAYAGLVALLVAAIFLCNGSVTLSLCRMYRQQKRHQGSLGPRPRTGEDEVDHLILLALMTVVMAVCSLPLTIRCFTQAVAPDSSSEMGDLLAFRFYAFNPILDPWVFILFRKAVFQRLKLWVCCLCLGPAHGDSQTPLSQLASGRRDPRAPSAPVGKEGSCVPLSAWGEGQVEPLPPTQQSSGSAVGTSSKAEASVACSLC

SMILES: Cc1[nH]c2ccccc2c1CCNC(=O)c1ccc(-c2nnn[nH]2)cc1 [Compound 3]
- metabolites after incubation in mouse liver microsomes [1]: did not produce any fragments even after 20 minutes of incubation
- half-life (in vivo; mouse, po, 10 mg/kg): > 6 h
- MLMt1/2 ([2]; 1 μM compound, 0.5 mg/mL liver microsomes (compounds 1 and 3)): >60 min

SMILES: COc1ccccc1-c1ccc(C(=O)NCCc2c(C)[nH]c3ccccc23)cn1 [Compound 8c, 6-(2-Methoxyphenyl)-N-(2-(2-methyl-1H-indol-3-yl)ethyl)nicotinamide]
- Solubility in SGF [3]: >100 µM
- half-life (in vivo; C57BL/6, mouse, ip, 10 mg/kg): < 1 h
- Aqueous Solubility [4]: 28 µM

SMILES: COc1cc(OC)cc(-c2ccc(C(=O)NCCc3c(C)[nH]c4ccccc34)cn2)c1 [Compound 8g, 6-(3,5-Dimethoxyphenyl)-N-(2-(2-methyl-1H-indol-3-yl)ethyl)nicotinamide]
- Solubility in SGF [3]: >100 µM
- half-life (in vivo; C57BL/6, mouse, ip, 10 mg/kg): < 1 h
- Aqueous Solubility [4]: 12 µM

SMILES: COc1ccccc1-c1ncc(C(=O)NCCc2c(C)[nH]c3ccccc23)cn1 [Compound 14a, 2-(2-Methoxyphenyl)-N-(2-(2-methyl-1H-indol-3-yl)ethyl)pyrimidine-5-carboxamide]
- half-life (in vivo; C57BL/6, mouse, ip, 10 mg/kg): < 1 h
- solubility (physchem [5]): > 100 µM
- Aqueous Solubility [4]: 71 µM
- S.I (EP4/EP2) (human EP4 receptor): 517
- S.I (IP/EP2) (human IP receptor): 730

SMILES: Cc1[nH]c2ccccc2c1CCNC(=O)c1cnc(Nc2ccccn2)nc1 [Compound 20a, N-(2-(2-Methyl-1H-indol-3-yl)ethyl)-2-(pyridin-2-ylamino)pyrimidine-5-carboxamide]
- Aqueous Solubility [4]: 27 µM
- S.I. (DP1/EP2) (human DP1 receptor): >900
- S.I (IP/EP2) (human IP receptor): >900

SMILES: Cc1ccnc(Nc2ncc(C(=O)NCCc3c(C)[nH]c4ccccc34)cn2)c1 [Compound 20b, N-(2-(2-Methyl-1H-indol-3-yl)ethyl)-2-((4-methylpyridin-2-yl)amino)pyramidine-5-carboxamide]
- MLM T½ ([2]; 1 μM compound, 0.125 mg/mL liver microsomes, NADPH): 8 min
- Aqueous Solubility [4]: 25 µM

SMILES: Cc1[nH]c2ccccc2c1CCNC(=O)c1cnc(Nc2cc(F)ccn2)nc1 [Compound 20c, 2-((4-Fluoropyridin-2-yl)amino)-N-(2-(2-methyl-1H-indol-3-yl)ethyl)pyrimidine-5-carboxamide]
- stability in vivo [6]: unstable in vivo
- Aqueous Solubility [4]: 15 µM
- S.I (EP4/EP2) (human EP4 receptor): >1500
- S.I (IP/EP2) (human IP receptor): >1500

SMILES: Cc1cccc(Nc2ncc(C(=O)NCCc3c(C)[nH]c4ccccc34)cn2)n1 [Compound 20e, N-(2-(2-Methyl-1H-indol-3-yl)ethyl)-2-((6-methylpyridin-2-yl)amino)pyrimidine-5-carboxamide]
- Aqueous Solubility [4]: 25 µM
- S.I (EP4/EP2) (human EP4 receptor): >1500
- S.I (IP/EP2) (human IP receptor): >1500

SMILES: Cc1[nH]c2ccccc2c1CCNC(=O)c1cnc(Nc2cccc(F)n2)nc1 [Compound 20f, 2-((6-Fluoropyridin-2-yl)amino)-N-(2-(2-methyl-1H-indol-3-yl)ethyl)pyrimidine-5-carboxamide]
- fold higher half-life in liver microsomes ([2]; 24i vs 20o, 20c vs 20b, 20f vs 20e): 8 fold
- Aqueous Solubility [4]: 41 µM

SMILES: COc1cccc(Nc2ncc(C(=O)NCCc3c(C)[nH]c4ccccc34)cn2)n1 [Compound 20h, 2-((6-Methoxypyridin-2-yl)amino)-N-(2-(2-methyl-1H-indol-3-yl)ethyl)pyrimidine-5-carboxamide]
- Kb (human EP2 receptor): 7.8 nM
- Aqueous Solubility [4]: 15 µM
- S.I. (DP1/EP2) (human DP1 receptor): >1280
- S.I (IP/EP2) (human IP receptor): >1280

SMILES: Cc1cc(C)nc(Nc2ncc(C(=O)NCCc3c(C)[nH]c4ccccc34)cn2)c1 [Compound 20o, 2-((4,6-Dimethylpyridin-2-yl)amino)-N-(2-(2-methyl-1H-indol-3-yl)ethyl)pyrimidine-5-carboxamide]
- CC50 (C6glioma cells): > 50000 nM
- Aqueous Solubility [7]: 15 µM
- MLMt1/2 [8]: 17 min
- substrate of efflux pumps (MDR1-MDCK cell line): not the substrate of efflux pumps
- Permeability across MDR1-MDCK cell line, A-B (MDR1-MDCK cell line; dog): A-B: 13.2 × 10^−6 cm/s
- Permeability across MDR1-MDCK cell line, B-A (MDR1-MDCK cell line; dog): B-A: 22.2 × 10^−6 cm/s
- bioavailability (in vivo; mouse, po): 25%
- Aqueous solubility of corresponding HCl salt in SGF ([9]; HCl salt, simulated gastric fluid pH 2.0, nephelometry): >250 µM
- solubility ([9]; pH 2, simulated gastric fluid, kinetic from dmso stock): > 100 µM

SMILES: Cc1cc(C)nc(Nc2ncc(C(=O)NCCc3c(C)[nH]c4ccccc34)cn2)c1 [Compound 20o.HCl, 2-((4,6-Dimethylpyridin-2-yl)amino)-N-(2-(2-methyl-1H-indol-3-yl)ethyl)pyrimidine-5-carboxamide.Hydrochloride]
- water pH after dissolving ([10]; 2 mg/mL in neat water, starting pH 6.4): 3.5
- water solubility ([10]; thermodynamic solubility in water, HCl salts): 1000 µg/mL
- solubility ([10]; water, thermodynamic from solid): 1100 to 1200 µg/mL

SMILES: Cc1[nH]c2ccccc2c1CCNC(=O)c1cnc(Nc2cccnc2)nc1 [Compound 20q, N-(2-(2-Methyl-1H-indol-3-yl)ethyl)-2-(pyridin-3-ylamino)pyrimidine-5-carboxamide]
- Kb (human EP2 receptor): 8.3 nM
- Aqueous Solubility [4]: 17 µM
- S.I (EP4/EP2) (human EP4 receptor): >1200
- S.I (IP/EP2) (human IP receptor): >1200

SMILES: Cc1cc(C)nc(Nc2ncc(C(=O)NCCc3c(C)[nH]c4ccc(F)cc34)cn2)c1 [Compound 24a, 2-((4,6-Dimethylpyridin-2-yl)amino)-N-(2-(5-fluoro-2-methyl-1H-indol-3-yl)ethyl)pyrimidine-5-carboxamide]
- Aqueous Solubility [4]: 5 µM
- S.I (IP/EP2) (human IP receptor): 770

SMILES: Cc1cc(C)nc(Nc2ncc(C(=O)NCCc3c(C)[nH]c4c(F)cccc34)cn2)c1 [Compound 24aa, 2-((4,6-dimethylpyridin-2-yl)amino)-N-(2-(7-fluoro-2-methyl-1H-indol-3-yl)ethyl)pyrimidine-5-carboxamide]
- Kb (human EP2 receptor): 1.7 nM
- Kp at 0.5 h (in vivo; C57BL/6, mouse): 0.4
- half-life (in vivo; mouse, ip, 20 mg/kg): 5.4 h
- solubility (physchem [5]): > 250 µM
- solubility (physchem [11]): 1100 to 1200 µg/mL (≈ 2630 to 2870 µM)
- solubility at 24 h (physchem [11]): 2640 µM (≈ 1100 µg/mL)
- half-life at 1 μM (in vitro): 0.383 h
- MLMt1/2 ([2]; 1 μM compound, 0.125 mg/mL liver microsomes (Table 7)): 23 min
- solubility ([4]; PBS with 1% DMSO, pH 7.4, aqueous buffer, kinetic from dmso stock): 150 µM (≈ 62.8 µg/mL)

SMILES: Cc1cc(C)nc(Nc2ncc(C(=O)NCCc3c(C)[nH]c4ccc(Cl)cc34)cn2)c1 [Compound 24b, N-(2-(5-Chloro-2-methyl-1H-indol-3-yl)ethyl)-2-((4,6-dimethylpyridin-2-yl)amino)pyrimidine-5-carboxamide]
- Kb (human EP2 receptor): 28.3 nM
- Aqueous Solubility [4]: 20 µM
- S.I (EP4/EP2) (human EP4 receptor): >350
- S.I (IP/EP2) (human IP receptor): >350

SMILES: Cc1cc(C)nc(Nc2ncc(C(=O)NCCc3c(C)[nH]c4c(F)cc(F)cc34)cn2)c1 [Compound 24c, N-(2-(5,7-Difluoro-2-methyl-1H-indol-3-yl)ethyl)-2-((4,6-dimethylpyridin-2-yl)amino)pyrimidine-5-carboxamide]
- Kb (human EP2 receptor): 20 nM
- solubility (physchem [5]): > 100 µM
- S.I (IP/EP2) (human IP receptor): >500

SMILES: Cc1[nH]c2ccccc2c1CCNC(=O)c1ccc(-c2cnc[nH]2)cc1 [TG8-260, 4-(1H-imidazol-5-yl)-N-(2-(2-methyl-1H-indol-3-yl)ethyl)benzamide]
- inhibition of PGE2-induced human EP2 receptor activation (human EP2 receptor; concentration-response, in words): inhibits PGE2-induced human EP2 receptor activation in a concentration dependent manner
- S.I (EP4/EP2) (human EP4 receptor): at least 300
- S.I. (DP1/EP2) (human DP1 receptor): at least 300
- S.I (IP/EP2) (human IP receptor): at least 300

SMILES: COc1cccc2c1C(=O)c1c(O)c3c(c(O)c1C2=O)C[C@@](O)(C(=O)CO)C[C@@H]3O[C@H]1C[C@H](N)[C@H](O)[C@H](C)O1 [doxorubucin, reference compound]
- CC50 (C6glioma cells): 900 nM
